Measured values as given in patent US8895502B2, “β2-glycoprotein I peptide inhibitors” (Kansas State University Research Foundation, priority 2010, dated 2014).
Entries after “also recorded” stand apart in the source; their conditions may differ. Ends that are not written are not given here.

Key:
LTB4 = assay: Intestinal IR, ex vivo LTB4 generation; assay type: in vivo, mouse; set-up: key to LTB4 Production: + indicates significant difference from Sham treated mice; − indicates not significantly different from C57B1/6 sham treated mice; +/− indicates no significant difference from either C57B1/6 mice subjected to either Sham or IR; conditions: for LTB4 Production: C57Bl/6 mice subjected to IR, peptide 40 μM i.v. 5 min prior to artery occlusion; for IR-induced intestinal LTB4 production: C57Bl/6 mice, peptide 40 μM prior to IR
Experimental: (§1) C57Bl/6 and Rag-1^−/− mice were subjected to ischemia followed by reperfusion similar to previously described studies (Moses, T. et al., J. Leukoc. Biol. 86:971-980 (2009)). Briefly, ketamine (16 mg/kg) and xylazine (80 mg/kg) were used to anesthetize the mice. Buprenorphine (0.06 mg/kg) was then administered for pain. A midline laparotomy was performed to expose the abdominal cavity of the mice, which were then allowed to equilibrate for 30 min. Body temperature was maintained at 37° C. using a water-circulating heat pad. Placing a warm, saline moistened piece of gauze over the abdominal cavity prevented peritoneal desiccation. […] Ischemia was noted by the intestine changing from a pink color to a gray color. After 30 min of ischemia, the clamp was removed and the intestines were allowed to reperfuse for 5, 10, 15, or 120 min. […] Mice treated with the various β2-GPI peptides underwent the same procedure with i.v. administration of the peptides (40 μM) 5 min prior to artery occlusion. Peptides 296, 305, and 296Cys to Ser were dissolved in N. Saline (0.9% NaCl) and injected i.v. in 100-μL volumes. Peptides 100 and 181 were dissolved in DMSO prior to diluting 1/100 in N. Saline. Additional mice received peptides prior to Sham treatment.
Ex vivo generation of eicosanoids by mid-jejunal tissue was determined. Immediately after collection, a 2-cm intestinal section from each mouse was minced, washed, resuspended in 37° C. oxygenated Tyrode's buffer (Sigma-Aldrich; St. Louis, Mo.), incubated at 37° C. for 20 minutes, and the supernatant collected. PGE2 and LTB4 concentrations were determined using enzyme immunoassay kits (Cayman Chemical; Ann Arbor, Mich.). IL-6 and IL-12 concentrations were determined using a Milliplex MAP immunoassay kit (Millipore) and read on a Milliplex Analyzer (Millipore). All eicosanoid and cytokine concentrations were standardized to the total tissue protein content.
Total peroxidase, LTB4, PGE2, IL-6, IL-12p40, and IL-12p70 concentrations were determined using the procedures described in Example 1.

CD31 (PECAM-1) = assay: Intestinal IR, CD31 immunohistochemistry; assay type: in vivo, mouse; set-up: key to CD31 Deposition: + indicates significant difference from Sham treated mice; − indicates not significantly different from C57B1/6 sham treated mice; +/− indicates no significant difference from either C57B1/6 mice subjected to either Sham or IR; conditions: for CD31 Deposition: C57Bl/6 mice subjected to IR, peptide 40 μM i.v. 5 min prior to artery occlusion; for expression of adhesion molecule CD31 after IR: C57Bl/6 mice, peptide prior to IR
Experimental: as §1
(§2) After euthanasia, an additional 2-cm intestinal section from each mouse was immediately snap frozen in O.C.T. freezing medium and 8 μm sections were placed on slides for immunohistochemistry. The C3 deposition and F4/80 expression on the tissue sections were detected by staining with a purified rat-anti-mouse C3 (Hycult Biotechnologies; Plymouth Meeting, Pa.) or F4/80 (eBioscience; San Diego, Calif.) antibody followed by a Texas-red conjugated donkey-anti-rat IgG secondary antibody (Jackson Immunoresearch). CD31 (PECAM-1) and CD106 (VCAM-1) were detected by FITC conjugated rat anti-mouse CD31 or CD106 (Biolegend; San Diego, Calif.) antibodies. Each experiment contained serial sections stained with the appropriate isotype control antibodies. All slides were mounted with ProLong Gold (Invitrogen). Images were obtained at room temperature using a Nikon Eclipse 80i microscope equipped with a CoolSnap CF camera (Photometrics) and analyzed using Metavue software (Molecular Devices). The fluorescence was semi-quantitated using Image J software (NIH) using the fluorescent area fraction after setting threshold for each experiment. The average of the isotype control was subtracted from each photo.

C3 = assay: Intestinal IR, C3 deposition immunohistochemistry; assay type: in vivo, mouse; set-up: key to C3 Deposition: + indicates significant difference from Sham treated mice; − indicates not significantly different from C57B1/6 sham treated mice; +/− indicates no significant difference from either C57B1/6 mice subjected to either Sham or IR; conditions: for C3 Deposition: C57Bl/6 mice subjected to IR, peptide 40 μM i.v. 5 min prior to artery occlusion; for C3 deposition / complement activation after IR: C57Bl/6 mice, peptide infused prior to IR
Experimental: as §1, §2

[1] = tested on: hypoxic MS-1 endothelial cells; assay: In vitro hypoxia and immunocytochemistry: β2-GPI / anti-β2-GPI mAb binding to hypoxic endothelial cells; assay type: cell-based, mouse; conditions: peptide 40 μM during 4 hours hypoxia
Experimental: MS-1 endothelial cells were subjected to hypoxia or normoxia to validate β2-GPI binding in vitro. Hypoxic MS-1 endothelial cells (ATCC CRL-2279) received degassed, serum-free DMEM and were placed in a hypoxia chamber containing 94% nitrogen and 5% CO2. Normoxic cells received DMEM supplemented with 10% heat-inactivated sera from Rag-1^−/− mice in 8% CO2. After 4 hours at 37° C., all cells received fresh medium containing 10% heat-inactivated Rag-1^−/− sera and were incubated in normoxic conditions for 1 hour at 37° C. Additional peptide-inhibition studies were performed by addition of peptides (40 μM final concentration) during the hypoxic period. Cells were methanol fixed and stained with the anti-β2-GPI mAb (Millipore; Billerica, Mass.) followed by an anti-mouse IgG antibody to determine β2-GPI binding. Anti-β2-GPI binding was determined by allowing anti-β2-GPI mAb (Millipore) to bind during the 1 hour normoxic period. The cells were then stained with anti-mouse IgG antibodies (Jackson ImmunoResearch; West Grove, Pa.) as previously described (Fleming, S. D. et al., J. Immunol. 173:7055-7061 (2004)). Slides were mounted with DAPI (Blue) to identify the nuclei. The fluorescence was determined in a blind manner using a Nikon 80i fluorescent microscope with a 40× Plan Fluor objective and images acquired using a CoolSnap Cf camera (Photometrics; Tucson, Ariz.) and MetaVue Imaging software (Molecular Devices; Sunnyvale, Calif.). Each photomicrograph in the Figures is representative of 3 experiments with 4-6 photomicrographs per treatment group in each experiment. Bar=40 μm. Hypoxia was conducted similar to previous studies with the following modifications (Banerjee, S. et al., Reprod. Biol. Endocrinol. 7:4 (2009)). Hypoxic cells received degassed, serum-free DMEM and were placed in a hypoxia chamber containing 94% nitrogen, 5% CO2, and 1% O2. Normoxic cells received normal DMEM with 10% FBS in 8% CO2. After 2 hours at 37° C., all cells received fresh medium containing 10% heat-inactivated Rag-1^−/− sera and then were incubated under normoxic conditions for 1 hour at 37° C. Cells receiving β2-GPI peptides were administered the peptides (40 μM) during the 2 hours of either hypoxia or normoxia. IgG binding was determined using anti-mouse IgG antibodies (Jackson ImmunoResearch) as previously described (Fleming, S. D. et al., J. Immunol. 173:7055-7061 (2004)). Similarly, after Sham or IR, intestinal sections from peptide-treated mice were stained with anti-IgG antibodies to determine antibody deposition. The fluorescence was determined in a blind manner using a Nikon 80i fluorescent microscope and images acquired using a CoolSnap Cf camera (Photometrics) and MetaVue Imaging software (Molecular Devices).

Substance | LTB4 Production (LTB4) | IR-induced intestinal LTB4 production (LTB4) | CD31 Deposition (CD31 (PECAM-1)) | expression of adhesion molecule CD31 after IR (CD31 (PECAM-1)) | C3 Deposition (C3) | C3 deposition / complement activation after IR (C3) | anti-β2-GPI mAb binding to hypoxic MS-1 cells [1] | β2-GPI binding to hypoxic endothelial cells [1]
H-KNISFACNPGFFLNG-NH2 [peptide 100, 16, reference compound] | + | sustained inflammation similar to untreated mice | + | significantly different from both Sham and IR treated mice | + | did not significantly inhibit C3 deposition | did not inhibit antibody binding | 
H-KKCSYTVEAHCRDGTIEIPSCFKEHS-OH (cysteine pairing not given here) [peptide 305, 10] | + | did not attenuate | + | inhibited | − | not significantly different from either Sham or IR treatment; also recorded: attenuated complement activation | did not bind | capable of preventing β2-GPI from binding
H-IPSCFKEHSSLAFWKTDASELTPC-NH2 (cysteine pairing not given here) [peptide 322, 18] | + | sustained inflammation similar to untreated mice | + |  | + | did not significantly inhibit C3 deposition | did not inhibit antibody binding | 
H-IHFYSKNKEKKSSYTVEAHSRDGTI-OH [peptide 296Cys-Ser] | − | attenuated; also recorded: blocked | − | inhibited | − | significantly decreased C3 deposition; also recorded: attenuated complement activation |  | attenuated β2-GPI binding
H-IHFYCKNKEKKCSYTVEAHCRDGTI-OH (cysteine pairing not given here) [peptide 296] | − | attenuated; also recorded: blocked | − | inhibited | − | significantly decreased C3 deposition; also recorded: attenuated complement activation | did not bind | capable of preventing β2-GPI from binding
